Experimental data: patent US8900444B2, “Switchable hydrophilicity solvents and methods of use thereof” (Queen's University at Kingston, priority 2009, dated 2014)
Entries after “also recorded” stand apart in the source; their conditions may differ.

Experiments:
[1] = Regeneration of BA from aqueous BAB using air (Example 1C); type: physicochemical
Description: Switching behavior was studied for an aqueous solution of BAB. A glass vial (4 mL) was prepared, containing distilled water (1.0 mL) and BA (1.0 mL) as a two-phase mixture. CO2 was bubbled through the vial for roughly 30 minutes, until the top layer had disappeared showing that a single-phase solution of BAB in water had been formed.
Air was then bubbled through the same glass vial with the single-phase solution for approximately 5 hours at room temperature to displace CO2 from the solution. The formation of a second layer (hydrophobic BA) was noted.

[2] = Separation of switchable solvent from soybean oil with CO2/carbonated water (Examples 2A, 2C); type: physicochemical
Description: A 4 mL vial was prepared containing 1.0 mL D2O, 0.5 mL BA and 0.5 mL soybean oil. The vial was shaken thoroughly and allowed to settle, showing a 1.0 mL upper layer (soybean oil and BA) and a 1.0 mL lower layer (D2O). ^1H NMR samples (50 μL) were withdrawn from each layer and mixed with methanol-d4 (0.5 mL) containing a dioxane internal standard (51.5 mM). Another sample was withdrawn from the upper layer for ^1H NMR analysis in CDCl3, because soybean oil is not miscible with methanol. The same volume was discarded from the bottom layer to maintain the initial ratio.
CO2 was bubbled through the system for 1.5 h, at which time the top layer appeared to have halved in volume. Using the same system, ^1H NMR analysis was again conducted on both layers, the bottom layer in methanol-d4 and the top layer in CDCl3.
A 1.0 mL portion of the bottom layer was withdrawn and transferred to a new 4.0 mL vial. A magnetic stirrer was added and the vial was stirred at 80° C. for 1 h. Samples were withdrawn from both layers for ^1H NMR analysis in methanol-d4 with reference to the dioxane internal standard.
The switching behavior of BA in the presence of soybean oil was studied qualitatively and by ^1H NMR spectroscopy as shown in FIG. 11. The top spectrum is that of soy oil. The middle spectrum is that of the upper (organic) phase after the mixing of the BA, soy oil and D2O. This upper phase comprises soy oil and BA. The bottom spectrum is that of the upper (organic) phase after the addition of the CO2 trigger and comprises predominantly soy oil and any residual solvent.
The most informative ^1H NMR spectra in this experiment were those showing the separation of the soy oil and BA. Based on the integration of the peak corresponding to BA at 3.17 ppm in these spectra, 96% of the amidine was removed from the upper soybean oil layer after switching to its hydrophilic BAB form. Other spectra (not shown), collected in methanol-d4 with a dioxane internal standard, confirmed the switching behavior presented in Example 1 above, showing 11% retention of BA in the aqueous phase after heating.
It was possible to remove a high percentage of N1,N1,N4,N4-tetraethylbutane-1,4-diamine from the soybean oil be mixing with carbonated water. The percentage removal was 98.65%. In contrast, 96% of BA was removed from the soybean oil.

time of CO2 bubbling until top layer disappeared ([1]; 1.0 mL water + 1.0 mL BA): roughly 30 minutes | time of air bubbling after which second layer was noted ([1]; room temperature): approximately 5 hours | solvent removed from soybean oil after switching to hydrophilic form ([2]; CO2 / carbonated water): 96% | retention of BA in the aqueous phase after heating ([2]; soybean oil experiment, 80 °C, 1 h, dioxane internal standard): 11%
SMILES: CCCCN=C(CCCC)N(CCCC)CCCC [BA, N,N,N′-tributylpentanamidine]
miscibility with soybean oil ([2]; neutral hydrophobic form): miscible with soy oil; also recorded: miscible with soybean oil
